Data on 11 compounds can be found in ChEMBL document CHEMBL1201862, “PubChem BioAssay data set” (2004).

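Grown in 96-well plates, cells were treated for 48 hours with each compound at five concentrations. Insufficient inhibition: endpoint recorded as highest concentration tested. GI50: concentration for 50% inhibition of growth.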 Active and inactive are the calls of the source. Rule as the data show it: active = GI50 up to about 1.1 µM and inactive = higher. Where only a bound is given, the exact number is not on record here.

Among the test systems are HCC 2998; MDA-MB-231; PC-3; A549; HL-60; NCI/ADR-RES; RXF 393; SW-620; M14; HCT-116; SNB-19; MDA-N; HCT-15; SN12C; ACHN; HOP-62; SK-OV-3; NCI-H522; SF-268; CAKI-1.
Holding throughout (assay): NCI-60 cell line screen, 48 h

Turning to `CCCCCCCCCCCCCCCCCCNc1nc(=O)n(C2CC(O)C(COP(=O)(O)OCC(COP(=O)(O)OC3C(CO)OC(n4ccc(N)nc4=O)C3O)OCCCCCCCCCCCCCCCCCC)O2)cc1F` (stereo not given), the GI50 with HCC 2998 is 14.1 µM (inactive); in the test on MDA-MB-231 it was > 100 µM (inactive); in the test with PC-3 it was 13.2 µM (inactive); in the test with A549, 14.5 µM (inactive); with HL-60 it was 8.36 µM (inactive); in the test with NCI/ADR-RES, > 100 µM (inactive). In addition, the GI50 in the test on RXF 393 is 14.5 µM (inactive); with SW-620, > 100 µM (inactive); with M14, 31.7 µM (inactive); in the test with HCT-116, 27.5 µM (inactive); in the test with SNB-19, 14.9 µM (inactive); in the test with MDA-N it was > 100 µM (inactive). The GI50 in the test with HCT-15 is 34 µM; in the test with SN12C, > 100 µM (inactive); in the test with ACHN, 23.3 µM (inactive); in the test with HOP-62 it was 16.5 µM (inactive); in the test with SK-OV-3, 99.3 µM (inactive); in the test with NCI-H522, 11.9 µM (inactive). Moreover, the GI50 in the test on SF-268 was 91.6 µM (inactive); in the test with CAKI-1 it was 46.3 µM (inactive).
With `COC(=O)c1ccc2c(O)c(O)ccc2c1`, the GI50 is 15.1 µM (inactive) in the test on HCC 2998; 6.56 µM (inactive) with MDA-MB-231; 5.6 µM (inactive) with PC-3; 22.2 µM (inactive) in the test with A549; 2.02 µM (inactive) in the test on HL-60; 20.1 µM (inactive) in the test on NCI/ADR-RES. Also, the GI50 in the test with RXF 393 is 17.6 µM (inactive); in the test on SW-620, 12.1 µM (inactive); in the test with M14, 16.4 µM (inactive); with HCT-116, 16.7 µM (inactive); in the test on SNB-19, 14.4 µM (inactive); in the test on MDA-N, 1.74 µM (inactive). The GI50 is 13.6 µM with HCT-15; 9.14 µM (inactive) in the test on SN12C; 17.1 µM (inactive) in the test on ACHN; 18.9 µM (inactive) in the test on HOP-62; 18.1 µM (inactive) in the test on SK-OV-3; 15.2 µM (inactive) in the test on NCI-H522. The results for the GI50 in the test with SF-268 and with CAKI-1 were 19.4 µM (inactive) and 25.1 µM (inactive), respectively.
Regarding `O=C1NC(=S)N/C1=C\c1cc2c(=O)c3ccccc3sc2s1`, the GI50 was 71.1 µM (inactive) in the test with HCC 2998; > 100 µM (inactive) in the test with MDA-MB-231; 72.1 µM (inactive) in the test on PC-3; 36.5 µM (inactive) with HL-60; > 100 µM (inactive) with NCI/ADR-RES; 68.1 µM (inactive) with RXF 393. The GI50 is 57.8 µM (inactive) in the test with SW-620; 36.4 µM (inactive) with HCT-116; 33.4 µM (inactive) in the test on SNB-19; 87.7 µM (inactive) in the test with MDA-N; over 100 µM in the test with HCT-15; > 100 µM (inactive) with SN12C. In addition, the GI50 was 60.8 µM (inactive) in the test on ACHN; 32.5 µM (inactive) in the test with HOP-62; 71 µM (inactive) in the test on NCI-H522; > 100 µM (inactive) in the test with SF-268; > 100 µM (inactive) in the test with CAKI-1.
With `Cc1nc(O)c2ncn(CCO)c2n1`, the GI50 with HCC 2998, in the test on MDA-MB-231, in the test on PC-3, in the test on A549, in the test on HL-60 and with NCI/ADR-RES was > 100 µM (inactive) in each case. The GI50 with RXF 393, in the test with SW-620, in the test with M14, in the test on HCT-116, with SNB-19 and with MDA-N was > 100 µM (inactive) each time. The GI50 in the test with HCT-15 was over 100 µM; with SN12C, > 100 µM (inactive); in the test with ACHN it was > 100 µM (inactive); in the test on HOP-62, > 100 µM (inactive); with SK-OV-3, > 100 µM (inactive); in the test on NCI-H522 it was > 100 µM (inactive). Further, the GI50 with SF-268 and in the test on CAKI-1 was > 100 µM (inactive) in each case.
As to `O=c1c(-c2ccccc2)c(SCCN2CCCC2)n(-c2ccccc2)c(=S)n1-c1ccccc1`, the GI50 in the test with HCC 2998, with MDA-MB-231, in the test with PC-3, with A549, with HL-60 and in the test with NCI/ADR-RES was > 100 µM (inactive) in each case. For the same compound, the GI50 in the test on RXF 393, with SW-620, in the test on M14, in the test on HCT-116, with SNB-19 and in the test with MDA-N was > 100 µM (inactive) throughout. Besides, the GI50 in the test with HCT-15 is over 100 µM; with SN12C, > 100 µM (inactive); in the test on ACHN, > 100 µM (inactive); with HOP-62 it was > 100 µM (inactive); in the test with SK-OV-3, > 100 µM (inactive); in the test with NCI-H522, > 100 µM (inactive). The GI50 in the test with SF-268 and in the test with CAKI-1 was > 100 µM (inactive) each time.
Turning to `O=c1c2c([N+](=O)[O-])cccc2nc2[nH]c3ccccc3n12`, the GI50 is 19.3 µM (inactive) with HCC 2998; 14.7 µM (inactive) with MDA-MB-231; 57.8 µM (inactive) in the test on PC-3; 40.3 µM (inactive) with A549; > 75 µM (inactive) in the test with HL-60; 26.4 µM (inactive) in the test with NCI/ADR-RES. Further, the GI50 in the test on RXF 393 is 13.8 µM (inactive); in the test with SW-620 it was > 75 µM (inactive); in the test with M14, > 75 µM (inactive); with HCT-116, 34.1 µM (inactive); in the test with SNB-19 it was 30.9 µM (inactive); in the test on MDA-N, > 75 µM (inactive). The GI50 was 53.6 µM in the test on HCT-15; 25.6 µM (inactive) in the test on SN12C; 13.9 µM (inactive) in the test on ACHN; 70.8 µM (inactive) in the test on HOP-62; 13.3 µM (inactive) in the test on SK-OV-3; 18.7 µM (inactive) in the test with SF-268. Besides, the GI50 in the test with CAKI-1 was 14.6 µM (inactive).
`O=C1C(Cl)C2(CC(/C=C/c3ccccc3O)=NN2c2cccc(S(=O)(=O)O)c2)N1c1nc2ccccc2s1` (stereo not given): the GI50 with HCC 2998 was 14.5 µM (inactive); in the test on MDA-MB-231, 22.5 µM (inactive); in the test with PC-3, 24.8 µM (inactive); in the test on A549, 23.7 µM (inactive); in the test on HL-60, 3.54 µM (inactive); with NCI/ADR-RES, 36.1 µM (inactive). Further, the GI50 is 37.6 µM (inactive) in the test on RXF 393; 17.4 µM (inactive) in the test with SW-620; 18.3 µM (inactive) in the test with M14; 15.4 µM (inactive) in the test with HCT-116; 30.8 µM (inactive) in the test on SNB-19; 18.6 µM (inactive) with MDA-N. For the same compound, the GI50 in the test on HCT-15 is 18.2 µM; in the test with SN12C it was 14.2 µM (inactive); in the test with ACHN it was 20.2 µM (inactive); with NCI-H522, 3.57 µM (inactive); with SF-268 it was 16 µM (inactive).
In the case of `CN1CC2CC(C1)c1cccc(=O)n1C2` (stereo not given), the GI50 with HCC 2998 is 0.253 µM (active); in the test with MDA-MB-231, > 100 µM (inactive); with PC-3, > 100 µM (inactive); in the test on A549, > 100 µM (inactive); with NCI/ADR-RES, > 100 µM (inactive); in the test with RXF 393 it was > 100 µM (inactive). Moreover, the GI50 was > 100 µM (inactive) in the test with M14; > 100 µM (inactive) with HCT-116; > 100 µM (inactive) in the test with SNB-19; > 100 µM (inactive) with MDA-N; over 100 µM in the test with HCT-15; > 100 µM (inactive) in the test on SN12C. Moreover, the GI50 with ACHN, in the test with HOP-62, in the test with SK-OV-3, in the test on NCI-H522, with SF-268 and in the test on CAKI-1 was > 100 µM (inactive) in each case.
On to `CCN(C(=O)N[C@@H](CC(C)C)C(=O)NCC(=O)OC)c1ccccc1`, for which the GI50 is > 100 µM (inactive) in the test on HCC 2998; > 100 µM (inactive) with MDA-MB-231; > 100 µM (inactive) with PC-3; > 100 µM (inactive) in the test with A549; > 100 µM (inactive) in the test on NCI/ADR-RES; 54 µM (inactive) in the test with RXF 393. The GI50 was > 100 µM (inactive) in the test on SW-620; > 100 µM (inactive) with M14; > 100 µM (inactive) in the test with HCT-116; > 100 µM (inactive) with SNB-19; > 100 µM (inactive) with MDA-N; over 100 µM with HCT-15. The GI50 in the test with SN12C, with ACHN, with HOP-62, in the test on SK-OV-3, with NCI-H522 and in the test on CAKI-1 was > 100 µM (inactive) throughout.
As for `c1ccc(C2=C(c3ccccc3)P(c3ccccc3)C2)cc1` (stereo not given), the GI50 was > 100 µM (inactive) in the test on HCC 2998; > 100 µM (inactive) with MDA-MB-231; 48.1 µM (inactive) with PC-3; 43.4 µM (inactive) with A549; 40.1 µM (inactive) in the test with NCI/ADR-RES; > 100 µM (inactive) with RXF 393. Further, the GI50 was 64 µM (inactive) with SW-620; > 100 µM (inactive) in the test on M14; 83.4 µM (inactive) with HCT-116; > 100 µM (inactive) in the test on MDA-N; over 100 µM with HCT-15; > 100 µM (inactive) with SN12C. Moreover, the GI50 was > 100 µM (inactive) in the test with ACHN; > 100 µM (inactive) with HOP-62; > 100 µM (inactive) with SK-OV-3; 47.6 µM (inactive) in the test on NCI-H522; > 100 µM (inactive) in the test on SF-268; > 100 µM (inactive) in the test on CAKI-1.
Turning to `CCOc1ccccc1N1CSc2nnc(-c3ccccc3)n2C1`, the GI50 with HCC 2998, with MDA-MB-231, in the test with PC-3, in the test with A549, with NCI/ADR-RES and in the test on RXF 393 was > 100 µM (inactive) throughout. For the same compound, the GI50 with SW-620 is 49 µM (inactive); in the test on M14, > 100 µM (inactive); with HCT-116 it was 53.8 µM (inactive); in the test with MDA-N it was > 100 µM (inactive); in the test on HCT-15, over 100 µM; in the test on SN12C, > 100 µM (inactive). Further, the GI50 in the test with ACHN, in the test with HOP-62, in the test on SK-OV-3, with NCI-H522, in the test with SF-268 and in the test with CAKI-1 was > 100 µM (inactive) in each case.
